From patent US20120029031A1, “METADOXINE FOR USE AS INHIBITOR OF HEPATIC FIBROSIS” (LABORATORI BALDACCI SPA, priority 2009, published 2012)

System: immortalized human fibroblasts
Assay: Proliferation of immortalized human fibroblasts (MTT, Mosmann method)
Assay type: cell-based
Settings: MTT O.D. as percent of control; tested range 10^−11M to 10^−3M; measured up to 120 h, treatments repeated every 24 h
Protocol: The methods used allow evaluating the effect of substances provided with potential antifibrotic activity on the proliferation of fibroblasts.
A line of immortalized human fibroblasts was used, maintained in a culture in a suitable medium.
In order to carry out the proliferation experiments, the fibroblasts were detached from the flask by means of trypsinization, counted and distributed on 96-well flat-bottom plates at the concentration of 2000 cells/100 μl medium.
Scalar concentrations of metadoxine were added (range of concentration from 10^−11M to 10^−3M).
The plates were maintained in CO2 incubator at 37° C. The proliferation of the cells was measured at 24 h intervals up to 120 h by using the Mosmann method (10), based on the spectrophotometer determination of the conversion of MTT [3-(4,5 dimethylthiazole-2-yl)-2-5 diphenyltetrazolium bromide] to its blue reduction product, formazan, by mitochondrial enzymes of the metabolically active cells.
The optical densities (O.D.) were determined by means of the Titertek Multiscan (Flow) spectrophotometer with 540 nm filter.
The O.D.s of the samples are expressed as percentages of the samples with respect to the control group.

SMILES: Cc1ncc(CO)c(CO)c1O.O=C1CC[C@@H](C(=O)O)N1 [Metadoxine, Pyridoxol L-2-pyrrolidone-5-carboxylate]
- concentration at which metadoxine inhibits the fibrogenic activity / growth of fibroblasts: 10^−5 M
